{"source": "patent US8222004B2", "about": "“Diagnosis and treatment of autism using CD38” (National University Corporation Kanazawa University, priority 2006, dated 2012)", "key": {"[1]": {"system": "pituitary nerve terminals", "test": "Oxytocin release from isolated pituitary nerve terminals (in vitro)", "assay_type": "cell-based, mouse", "method": "(§1) Cell bodies of hypothalamic neurons and nerve terminals were isolated according to a previously described method (OuYang, W., et al., Brain Res. 1024, 203-21.1 (2004)), then washed with a Locke solution, and homogenized in a solution containing sucrose, 270; HEPES-Tris, 10; and K-EGTA, 0.01 (in mM, pH 7.25). The homogenates were transferred to Petri dishies and left standing for 5 to 8 minutes.\nIsolated cells and nerve terminals were left standing for 6 hours, and then, an experiment was started. The specimens were perfused for 45 minutes, and the perfusate was collected at last 5-minute intervals three times in total for control concentration measurement. Subsequently, the specimens were perfused for additional 5 minutes with Locke solution containing 70 mmol of KC1, and oxytocin concentrations in the obtained perfusates were determined using an oxytocin determination kit and considered as concentrations of oxytocin released by depolarization stimulation."}, "isolated nerve terminals": {"system": "isolated nerve terminals", "test": "Intracellular Ca2+ concentration in isolated nerve terminals (Oregon Green)", "assay_type": "cell-based, mouse", "conditions": "wild-type mice; 50 mM KCl", "method": "as §1\nThe cells were incubated with Oregon Green for 1 hour to incorporate the dye into the cells. Subsequently, a fluorescence intensity of the cells was measured using an excitation wavelength of 485 nm and a filter of 538 nm. A fluorescence microspectrophotometer and a condenser with an ARGUS-50 CCD camera were used for the measurement."}, "students": {"system": "students", "conditions": "194 students, intranasal administration, versus placebo; cited from earlier work"}, "[2]": {"system": "male CD38−/− and wild-type mice", "test": "Social memory of male mice (olfactory investigation time on repeated encounters)", "assay_type": "in vivo, mouse", "conditions": "subcutaneous, once, 1 to 10 ng/kg; for social memory (olfactory investigation): young male CD38−/− mice"}, "[3]": {"system": "postpartum female CD38−/− mice", "test": "Maternal behaviors of postpartum female mice (pup retrieval, crouching) after subcutaneous peptide administration", "assay_type": "in vivo, mouse", "conditions": "once, 1 to 10 ng/kg", "method": "Then, each mother mouse was put back at a corner of a cage, and the pups were placed at remaining 3 corners. In this state, behaviors of the mother mouse were observed. A latency to retrieve each pup and a duration of crouching over 3 pups were also measured.\nAccording to a previously described method (Boccia, M. M., et al., Neurobiol. Learn. Memory 69, 136-146 (1998)), oxytocin (OT) or vasopressin (AVP) dissolved in 0.05 M acetic acid was adjusted to 0.01 μM with saline, and this solution was subcutaneously administered once at a dose of 1 to 10 ng/kg body weight […] to the postpartum female CD38−/− mice (N=6 to 8) described above and young male mice (N=10 per group)."}, "[4]": {"molecular_target": "ADP-ribosyl cyclase activity (Homo sapiens, UniProt P28907, R140W)", "sequence (P28907 whole entry R140W)": "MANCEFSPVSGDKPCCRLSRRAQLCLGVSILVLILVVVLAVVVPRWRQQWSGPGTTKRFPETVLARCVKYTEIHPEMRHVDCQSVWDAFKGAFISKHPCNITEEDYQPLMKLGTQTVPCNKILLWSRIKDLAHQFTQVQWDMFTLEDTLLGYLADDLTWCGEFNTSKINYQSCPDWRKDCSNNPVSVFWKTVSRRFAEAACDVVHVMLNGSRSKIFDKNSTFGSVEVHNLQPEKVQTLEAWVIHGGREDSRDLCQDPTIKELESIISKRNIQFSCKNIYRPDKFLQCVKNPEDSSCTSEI", "conditions": "mutated CD38 found in human diabetes; cited from earlier work"}}}
{"molecule": "8-bromo-cADPR", "values": [{"measurement": "oxytocin release from the pituitary nerve terminals", "setting": "[1]; wild-type mice, 100 μM, high-potassium depolarization", "value": "decreased to same levels as those in the CD38−/− mice"}, {"measurement": "increase in intracellular Ca2+ concentration", "setting": "isolated nerve terminals", "value": "significantly inhibited"}]}
{"molecule": "Nc1ncnc2c1ncn2[C@@H]1O[C@H](COP(=O)(O)OP(=O)(O)OCC2OC([n+]3cccc(C(=O)[O-])c3)C(O)C2O)[C@@H](O)[C@H]1OP(=O)(O)O", "note": "(stereo in doubt) [NAADP, nicotinate adenine dinucleotide phosphate]", "values": [{"measurement": "oxytocin release from the pituitary nerve terminals", "setting": "[1]; all the mice, initially stimulated with Ca2+, 100 nM given outside the cells", "value": "promoted"}]}
{"molecule": "CO/C1=C\\C(C)=C\\[C@@H](C)[C@@H](O)[C@@H](C)C/C(C)=C/C=C/[C@H](OC)[C@@H]([C@@H](C)[C@@H](O)[C@H](C)[C@@]2(O)C[C@@H](O)[C@H](C)[C@@H](C(C)C)O2)OC1=O", "note": "[bafilomycin]", "values": [{"measurement": "oxytocin release from the pituitary nerve terminals", "setting": "[1]; wild-type mice, 2 μM, high-potassium depolarization", "value": "decreased to same levels as those in the CD38−/− mice"}]}
{"molecule": "N=c1c2ncn3c2ncn1[C@@H]1O[C@H](COP(=O)(O)OP(=O)(O)OC[C@H]2O[C@@H]3[C@H](O)[C@@H]2O)[C@@H](O)[C@H]1O", "note": "[cADPR, cyclic ADP-ribose]", "values": [{"measurement": "increase of oxytocin release", "setting": "[1]; CD38−/− mice, pituitary nerve terminals, 10 μM", "value": 2.5, "unit": "fold"}, {"measurement": "oxytocin release from the pituitary nerve terminals", "setting": "[1]; all the mice, initially stimulated with Ca2+, 10 μM given outside the cells", "value": "promoted"}]}
{"molecule": "CC[C@H](C)[C@@H]1NC(=O)[C@H](Cc2ccc(O)cc2)NC(=O)[C@@H](N)CSSC[C@@H](C(=O)N2CCC[C@H]2C(=O)N[C@@H](CC(C)C)C(=O)NCC(N)=O)NC(=O)[C@H](CC(N)=O)NC(=O)[C@H](CCC(N)=O)NC1=O", "note": "[oxytocin]", "values": [{"measurement": "investment in an investment game (trust, prosocial behavior)", "setting": "students", "value": "invested more money and more frequently invested a maximum allowable than the placebo group"}, {"measurement": "change in behaviors of wild-type mice", "setting": "[2]", "value": "no change"}, {"measurement": "social memory (olfactory investigation)", "setting": "[2]", "value": "recovered a social memory"}, {"measurement": "maternal behaviors (latency to retrieve pups, duration of crouching)", "setting": "[3]", "value": "recovered to same levels of maternal behaviors as those of the wild-type mice"}]}
{"molecule": "NC(=O)CC[C@@H]1NC(=O)[C@H](Cc2ccccc2)NC(=O)[C@H](Cc2ccc(O)cc2)NC(=O)[C@@H](N)CSSC[C@@H](C(=O)N2CCC[C@H]2C(=O)N[C@@H](CCCN=C(N)N)C(=O)NCC(N)=O)NC(=O)[C@H](CC(N)=O)NC1=O", "note": "[vasopressin]", "values": [{"measurement": "change in behaviors of wild-type mice", "setting": "[2]", "value": "no change"}, {"measurement": "social memory (olfactory investigation)", "setting": "[2]", "value": "no detectable change"}]}
{"molecule": "mutated CD38: human CD38 with substitution of tryptophan for arginine at position 140, found in human diabetes", "values": [{"measurement": "ADP-ribosyl cyclase activity relative to normal", "setting": "[4]", "value": "about ⅓"}]}
{"molecule": "ryanodine", "values": [{"measurement": "oxytocin release from the pituitary nerve terminals", "setting": "[1]; wild-type mice, 200 μM, high-potassium depolarization", "value": "decreased to same levels as those in the CD38−/− mice"}, {"measurement": "increase in intracellular Ca2+ concentration", "setting": "isolated nerve terminals", "value": "significantly inhibited"}]}
